Data taken from patent US20140349396A1, “Compositions and Methods Relating to Clonal Progenitor Cells” (priority 2011, published 2014).

Tested on: myoblasts
Experiment: Culture of hES-derived clonal myoblasts with or without the TGFβ inhibitor
Format: cell-based, human
Settings: removal of SB431542 together with switch from Matrigel to gelatin substrate (FIG. 11)
Source text: FIG. 11 is a photomicrograph showing myoblasts grown on Matrigel® in the presence of a TGFβ inhibitor (SB431542)(top) and myoblasts switched to gelatin without the TGFβ inhibitor.

## NC(=O)c1ccc(-c2nc(-c3ccc4c(c3)OCO4)c(-c3ccccn3)[nH]2)cc1 [SB431542]
  proliferation of myoblasts: increased proliferation
